Experimental data as given in US9567341B2, “Pyrrolopyrimidine derivatives as NR2B NMDA receptor antagonists” (Rugen Holdings (Cayman) Limited, priority 2014, dated 2017).
Like-named read-outs stand apart in the source and are kept apart here.

Tests used:
[1] = molecular target: human NR1/NR2A (Homo sapiens (Human), UniProt Q05586+Q12879); experiment: NR2A activity (Fluo-4 calcium influx assay); type: cell-based
[2] = molecular target: human NR1/NR2B (Homo sapiens (Human), UniProt Q13224); experiment: NR2B antagonist activity (Fluo-4 calcium influx assay); type: cell-based
Chain of human NR1/NR2B (Q13224 27-1484, other chains not shown): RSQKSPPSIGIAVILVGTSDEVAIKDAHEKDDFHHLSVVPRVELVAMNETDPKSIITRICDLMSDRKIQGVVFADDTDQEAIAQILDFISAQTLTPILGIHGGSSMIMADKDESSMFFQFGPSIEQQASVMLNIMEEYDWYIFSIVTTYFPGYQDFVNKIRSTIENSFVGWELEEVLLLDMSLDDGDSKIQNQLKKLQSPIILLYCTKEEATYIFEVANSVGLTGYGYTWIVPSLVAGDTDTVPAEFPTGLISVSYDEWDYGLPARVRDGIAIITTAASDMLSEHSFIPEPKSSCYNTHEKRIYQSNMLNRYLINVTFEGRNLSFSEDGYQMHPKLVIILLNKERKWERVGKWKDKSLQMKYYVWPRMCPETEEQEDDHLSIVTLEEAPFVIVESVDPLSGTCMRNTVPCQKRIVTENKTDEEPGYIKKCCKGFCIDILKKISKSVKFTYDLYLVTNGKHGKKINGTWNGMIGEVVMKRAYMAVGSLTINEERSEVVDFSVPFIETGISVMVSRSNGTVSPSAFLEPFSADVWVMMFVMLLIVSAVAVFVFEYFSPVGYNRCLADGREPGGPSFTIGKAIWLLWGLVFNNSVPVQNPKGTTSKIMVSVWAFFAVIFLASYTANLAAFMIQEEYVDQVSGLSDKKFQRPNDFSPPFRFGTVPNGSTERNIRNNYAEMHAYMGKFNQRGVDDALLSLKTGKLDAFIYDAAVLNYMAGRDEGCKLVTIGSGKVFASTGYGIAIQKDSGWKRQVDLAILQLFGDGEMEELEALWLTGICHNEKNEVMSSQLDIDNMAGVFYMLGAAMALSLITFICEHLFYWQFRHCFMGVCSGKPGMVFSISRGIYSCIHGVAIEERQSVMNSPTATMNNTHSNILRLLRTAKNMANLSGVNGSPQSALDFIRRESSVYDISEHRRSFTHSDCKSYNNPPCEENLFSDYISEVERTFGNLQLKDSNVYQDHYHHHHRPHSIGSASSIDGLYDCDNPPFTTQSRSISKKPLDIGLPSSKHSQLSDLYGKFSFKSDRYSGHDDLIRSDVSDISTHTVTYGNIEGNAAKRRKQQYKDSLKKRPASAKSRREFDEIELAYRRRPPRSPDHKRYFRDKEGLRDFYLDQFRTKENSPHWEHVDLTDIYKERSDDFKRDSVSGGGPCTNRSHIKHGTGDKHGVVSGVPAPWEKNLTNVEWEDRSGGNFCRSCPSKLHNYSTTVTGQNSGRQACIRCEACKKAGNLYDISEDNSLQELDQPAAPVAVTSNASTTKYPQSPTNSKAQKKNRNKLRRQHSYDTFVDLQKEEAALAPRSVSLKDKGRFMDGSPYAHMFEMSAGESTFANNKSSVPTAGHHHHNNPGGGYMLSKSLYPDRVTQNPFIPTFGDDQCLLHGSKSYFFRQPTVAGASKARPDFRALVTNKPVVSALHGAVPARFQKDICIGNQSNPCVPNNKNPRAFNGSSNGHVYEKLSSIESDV

[3] = molecular target: hERG channel (Homo sapiens (Human), UniProt Q12809); conditions: pH 7.35
Chain of hERG channel (Q12809 whole entry): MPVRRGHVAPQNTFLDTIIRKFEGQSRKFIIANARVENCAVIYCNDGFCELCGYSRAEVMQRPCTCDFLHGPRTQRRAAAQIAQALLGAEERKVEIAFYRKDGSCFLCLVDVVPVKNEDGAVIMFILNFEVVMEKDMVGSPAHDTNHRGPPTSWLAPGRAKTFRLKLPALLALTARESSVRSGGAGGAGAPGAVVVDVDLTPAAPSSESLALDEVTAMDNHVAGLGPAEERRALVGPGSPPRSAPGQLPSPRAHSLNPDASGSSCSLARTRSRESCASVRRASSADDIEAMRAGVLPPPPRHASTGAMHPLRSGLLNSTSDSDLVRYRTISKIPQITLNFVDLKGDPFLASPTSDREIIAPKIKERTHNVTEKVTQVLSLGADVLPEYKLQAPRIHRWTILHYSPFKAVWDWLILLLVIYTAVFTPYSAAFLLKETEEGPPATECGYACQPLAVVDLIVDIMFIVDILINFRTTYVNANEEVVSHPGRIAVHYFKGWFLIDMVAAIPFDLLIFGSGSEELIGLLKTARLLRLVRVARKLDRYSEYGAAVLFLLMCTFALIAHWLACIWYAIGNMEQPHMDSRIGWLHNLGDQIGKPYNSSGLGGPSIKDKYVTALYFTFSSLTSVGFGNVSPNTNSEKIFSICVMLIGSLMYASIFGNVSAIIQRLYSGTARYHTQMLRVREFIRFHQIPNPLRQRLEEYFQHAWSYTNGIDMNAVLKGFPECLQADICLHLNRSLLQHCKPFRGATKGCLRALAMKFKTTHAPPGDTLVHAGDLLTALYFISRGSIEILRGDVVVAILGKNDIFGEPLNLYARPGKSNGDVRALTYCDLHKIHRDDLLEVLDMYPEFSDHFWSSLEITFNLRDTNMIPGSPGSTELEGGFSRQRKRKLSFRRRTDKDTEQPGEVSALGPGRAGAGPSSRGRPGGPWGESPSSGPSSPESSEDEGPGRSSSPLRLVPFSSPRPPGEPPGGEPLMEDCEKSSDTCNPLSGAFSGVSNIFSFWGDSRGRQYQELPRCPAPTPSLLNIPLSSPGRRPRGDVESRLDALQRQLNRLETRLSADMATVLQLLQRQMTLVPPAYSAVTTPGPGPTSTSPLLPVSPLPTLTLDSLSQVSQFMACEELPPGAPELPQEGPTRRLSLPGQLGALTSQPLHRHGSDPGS

[4] = molecular target: CYP2D6 (Homo sapiens (Human), UniProt P10635); experiment: CYP P450 enzyme inhibition in pooled human liver microsome; conditions: read-out: CYP2D6 IC50, dextromethorphan 5 μM
Chain of CYP2D6 (P10635 whole entry): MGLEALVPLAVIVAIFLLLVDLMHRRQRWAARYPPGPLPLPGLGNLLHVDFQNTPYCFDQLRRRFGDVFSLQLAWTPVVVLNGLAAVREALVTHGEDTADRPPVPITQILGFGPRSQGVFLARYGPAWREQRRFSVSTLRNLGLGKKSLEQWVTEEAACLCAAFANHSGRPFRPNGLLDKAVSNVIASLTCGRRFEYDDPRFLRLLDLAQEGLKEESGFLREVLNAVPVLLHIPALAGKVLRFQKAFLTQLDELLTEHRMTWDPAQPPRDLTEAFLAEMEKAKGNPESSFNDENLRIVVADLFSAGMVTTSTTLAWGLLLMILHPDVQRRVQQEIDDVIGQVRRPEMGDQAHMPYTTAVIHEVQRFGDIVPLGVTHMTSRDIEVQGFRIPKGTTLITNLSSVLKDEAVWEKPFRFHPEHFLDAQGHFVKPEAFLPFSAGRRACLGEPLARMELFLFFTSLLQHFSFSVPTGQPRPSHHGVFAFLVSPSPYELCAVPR

[5] = tested on: Rats; experiment: Electroconvulsive threshold (ECT) test; type: in vivo, rat; conditions: p.o. 60 minutes before ECS, theophylline 128 mg/kg, diazepam 16 mg/kg
[6] = tested on: Male mice (strain NLMN); experiment: Forced swim test; type: in vivo, mouse; conditions: intraperitoneal, imipramine 32 mg/kg IP
[7] = HEK293 cells stably expressing human NR1/NR2B, glutamate 100 μM, glycine 50 μM, read-out: NR2B IC50
[8] = as printed in the CYP2D6 table, read-out: NR2B IC50
[9] = HEK293 cells stably expressing human NR1/NR2A, glutamate 100 μM, glycine 50 μM, read-out: NR2A IC50

Chain of human NR1/NR2A (Q12879 23-1464, other chains not shown): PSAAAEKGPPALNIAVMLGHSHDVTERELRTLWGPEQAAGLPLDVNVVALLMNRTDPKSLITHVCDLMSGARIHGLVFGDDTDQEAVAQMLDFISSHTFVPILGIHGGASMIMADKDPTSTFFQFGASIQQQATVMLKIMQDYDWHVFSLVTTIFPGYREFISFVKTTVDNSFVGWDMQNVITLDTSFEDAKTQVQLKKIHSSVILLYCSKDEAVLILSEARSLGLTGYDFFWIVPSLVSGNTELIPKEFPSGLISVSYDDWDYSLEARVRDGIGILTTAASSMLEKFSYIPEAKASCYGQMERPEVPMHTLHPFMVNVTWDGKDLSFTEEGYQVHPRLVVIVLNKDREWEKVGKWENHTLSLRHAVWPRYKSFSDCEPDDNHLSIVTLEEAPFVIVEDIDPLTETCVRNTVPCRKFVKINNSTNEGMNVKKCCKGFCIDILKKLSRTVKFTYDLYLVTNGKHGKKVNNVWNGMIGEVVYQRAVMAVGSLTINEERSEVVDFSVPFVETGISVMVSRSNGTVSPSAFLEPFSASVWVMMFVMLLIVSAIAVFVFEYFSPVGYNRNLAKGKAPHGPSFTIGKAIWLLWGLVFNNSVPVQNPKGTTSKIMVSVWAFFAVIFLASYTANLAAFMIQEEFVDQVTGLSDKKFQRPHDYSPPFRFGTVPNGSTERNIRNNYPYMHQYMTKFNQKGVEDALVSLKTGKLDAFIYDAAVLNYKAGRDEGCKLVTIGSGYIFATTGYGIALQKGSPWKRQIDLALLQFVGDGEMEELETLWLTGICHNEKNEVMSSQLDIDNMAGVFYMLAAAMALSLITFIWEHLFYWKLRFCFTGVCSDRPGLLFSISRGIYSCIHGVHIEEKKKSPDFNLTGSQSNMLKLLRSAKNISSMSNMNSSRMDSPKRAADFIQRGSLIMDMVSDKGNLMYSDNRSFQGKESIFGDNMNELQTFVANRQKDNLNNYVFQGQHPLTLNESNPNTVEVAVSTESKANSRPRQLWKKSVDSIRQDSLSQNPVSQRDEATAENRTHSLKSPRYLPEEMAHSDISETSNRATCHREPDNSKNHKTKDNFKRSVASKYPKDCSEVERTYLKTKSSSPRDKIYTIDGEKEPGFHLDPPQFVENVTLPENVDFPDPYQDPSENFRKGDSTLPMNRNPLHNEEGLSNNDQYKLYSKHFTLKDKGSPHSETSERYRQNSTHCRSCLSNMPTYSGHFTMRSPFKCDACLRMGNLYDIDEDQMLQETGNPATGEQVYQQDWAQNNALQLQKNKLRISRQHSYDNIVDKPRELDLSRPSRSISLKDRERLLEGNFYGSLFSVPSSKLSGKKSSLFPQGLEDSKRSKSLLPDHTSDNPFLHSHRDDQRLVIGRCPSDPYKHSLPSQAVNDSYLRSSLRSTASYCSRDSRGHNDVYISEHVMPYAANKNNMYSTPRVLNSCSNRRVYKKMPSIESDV

## Fc1ccc(C(F)(F)CN2CCC(Nc3ncnc4[nH]ccc34)CC2)nc1 [Compound C-2, N-(1-(2,2-difluoro-2-(5-fluoropyridin-2-yl)ethyl)piperidin-4-yl)-7H-pyrrolo[2,3-d]-pyrimidin-4-amine]
[1]
  IC50: > 10000 nM
[2]; read-out: NR2B IC50
  IC50: 124 nM

## FC(F)(CN1CCC(Nc2ncnc3[nH]ccc23)CC1)c1ccc(Cl)cn1 [Compound C-3, N-(1-(2-(5-chloropyridin-2-yl)-2,2-difluoroethyl)piperidin-4-yl)-7H-pyrrolo-[2,3-d]pyrimidin-4-amine]
[1]
  IC50: > 10000 nM
[3]
  IC50: 7000 nM
[4]
  IC50: 12000 nM

## Cc1ccc(C(F)(F)CN2CCC(Nc3ncnc4[nH]ccc34)CC2)nc1 [Compound C-4, N-(1-(2,2-difluoro-2-(5-methylpyridin-2-yl)ethyl)piperidin-4-yl)-7H-pyrrolo[2,3-d]pyrimidin-4-amine]
[1]
  IC50: > 10000 nM
[3]
  IC50: 11400 nM
[2]; read-out: NR2B IC50
  IC50: 35 nM
[2]; read-out: hNR2B IC50
  IC50: 35 nM

## FC(F)(F)c1ccc(C(F)(F)CN2CCC(Nc3ncnc4[nH]ccc34)CC2)nc1 [Compound C-5, N-(1-(2,2-difluoro-2-(5-(trifluoromethyl)pyridin-2-yl)ethyl)piperidin-4-yl)-7H-pyrrolo[2,3-d]pyrimidin-4-amine]
[3]
  IC50: 9500 nM
[2]; [7]
  IC50: 30 nM
[2]; [8]
  IC50: 30 nM
[2]; as printed in the hERG table, read-out: hNR2B IC50
  IC50: 30 nM
[4]
  IC50: 33000 nM

## FC(F)c1ccc(C(F)(F)CN2CCC(Nc3ncnc4[nH]ccc34)CC2)nc1 [Compound C-6, N-(1-(2-(5-(difluoromethyl)pyridin-2-yl)-2,2-difluoroethyl)piperidin-4-yl)-7H-pyrrolo[2,3-d]pyrimidin-4-amine]
[2]; [7]
  IC50: 31 nM

## FCc1ccc(C(F)(F)CN2CCC(Nc3ncnc4[nH]ccc34)CC2)nc1 [Compound C-7, N-(1-(2,2-difluoro-2-(5-(fluoromethyl)pyridin-2-yl)ethyl)piperidin-4-yl)-7H-pyrrolo[2,3-d]pyrimidin-4-amine]
[1]
  IC50: > 10000 nM
[2]; read-out: NR2B IC50
  IC50: 14 nM

## FC(F)(F)Oc1ccc(C(F)(F)CN2CCC(Nc3ncnc4[nH]ccc34)CC2)nc1 [Compound C-11, N-(1-(2,2-difluoro-2-(5-(trifluoromethoxy)pyridin-2-yl)ethyl)piperidin-4-yl)-7H-pyrrolo[2,3-d]pyrimidin-4-amine]
[2]; [7]
  IC50: 43 nM

## Fc1cc(Cl)cnc1C(F)(F)CN1CCC(Nc2ncnc3[nH]ccc23)CC1 [Compound C-16, N-(1-(2-(5-chloro-3-fluoropyridin-2-yl)-2,2-difluoroethyl)piperidin-4-yl)-7H-pyrrolo[2,3-d]pyrimidin-4-amine]
[1]
  IC50: > 10000 nM
[2]; read-out: NR2B IC50
  IC50: 47 nM

## Cc1cnc(C(F)(F)CN2CCC(Nc3ncnc4[nH]ccc34)CC2)c(F)c1 [Compound C-17, N-(1-(2,2-difluoro-2-(3-fluoro-5-methylpyridin-2-yl)ethyl)piperidin-4-yl)-7H-pyrrolo[2,3-d]pyrimidin-4-amine]
[1]
  IC50: > 10000 nM
[2]; read-out: NR2B IC50
  IC50: 44 nM

## Fc1cc(C(F)(F)F)cnc1C(F)(F)CN1CCC(Nc2ncnc3[nH]ccc23)CC1 [Compound C-18, N-(1-(2,2-difluoro-2-(3-fluoro-5-(trifluoromethyl)pyridin-2-yl)-ethyl)piperidin-4-yl)-7H-pyrrolo[2,3-d]pyrimidin-4-amine]
[2]; [7]
  IC50: 84 nM

## Cc1ccc(C(F)(F)CN2CCC(N(C)c3ncnc4[nH]ccc34)CC2)nc1 [Compound C-47, N-(1-(2,2-difluoro-2-(5-methylpyridin-2-yl)ethyl)piperidin-4-yl)-N-methyl-7H-pyrrolo[2,3-d]pyrimidin-4-amine]
[1]
  IC50: > 10000 nM
[2]; read-out: NR2B IC50
  IC50: 140 nM

## Cc1ccc(C(F)(F)CN2CCC(Nc3ncnc4[nH]ccc34)CC2)cn1 [Compound C-128, N-(1-(2,2-difluoro-2-(6-methylpyridin-3-yl)ethyl)piperidin-4-yl)-7H-pyrrolo-[2,3-d]pyrimidin-4-amine]
[1]
  IC50: > 10000 nM
[3]
  IC50: 28000 nM
[2]; read-out: NR2B IC50
  IC50: 89 nM
[2]; read-out: hNR2B IC50
  IC50: 89 nM

## Fc1ccc(C(F)(F)CN2CCC(Nc3ncnc4[nH]ccc34)CC2)cc1 [Compound C-175, N-(1-(2,2-difluoro-2-(4-fluorophenyl)ethyl)piperidin-4-yl)-7H-pyrrolo[2,3-d]-pyrimidin-4-amine]
[1]
  IC50: > 10000 nM
[3]
  IC50: 4500 nM
[2]; read-out: NR2B IC50
  IC50: 22 nM
[2]; read-out: hNR2B IC50
  IC50: 22 nM
[4]
  IC50: 2300 nM

## FC(F)(CN1CCC(Nc2ncnc3[nH]ccc23)CC1)c1ccc(Cl)cc1 [Compound C-176, N-(1-(2-(4-chlorophenyl)-2,2-difluoroethyl)piperidin-4-yl)-7H-pyrrolo[2,3-d]pyrimidin-4-amine]
[1]
  IC50: > 10000 nM
[2]; read-out: NR2B IC50
  IC50: 26 nM

## Cc1ccc(C(F)(F)CN2CCC(Nc3ncnc4[nH]ccc34)CC2)cc1 [Compound C-177, N-(1-(2,2-difluoro-2-p-tolylethyl)piperidin-4-yl)-7H-pyrrolo[2,3-d]-pyrimidin-4-amine]
[1]
  IC50: > 10000 nM
[2]; read-out: NR2B IC50
  IC50: 27 nM

## FC(F)(F)c1ccc(C(F)(F)CN2CCC(Nc3ncnc4[nH]ccc34)CC2)cc1 [Compound C-178, N-(1-(2,2-difluoro-2-(4-(trifluoromethyl)phenyl)ethyl)piperidin-4-yl)-7H-pyrrolo-[2,3-d]pyrimidin-4-amine]
[1]; [9]
  IC50: > 10000 nM
[2]; [7]
  IC50: 64 nM
[2]; [8]
  IC50: 64 nM
[4]
  IC50: 6700 nM

## FC(F)c1ccc(C(F)(F)CN2CCC(Nc3ncnc4[nH]ccc34)CC2)cc1 [Compound C-179, N-(1-(2-(4-(difluoromethyl)phenyl)-2,2-difluoroethyl)piperidin-4-yl)-7H-pyrrolo[2,3-d]pyrimidin-4-amine]
[1]; [9]
  IC50: > 10000 nM
[4]
  IC50: 4900 nM

## Cc1cnc(C(F)(F)CN2CCC(Nc3ncnc4[nH]ccc34)CC2)cn1 [Compound C-230, N-(1-(2,2-difluoro-2-(5-methylpyrazin-2-yl)ethyl)piperidin-4-yl)-7H-pyrrolo[2,3-d]pyrimidin-4-amine]
[1]
  IC50: > 10000 nM
[3]
  IC50: 13800 nM
[2]; read-out: NR2B IC50
  IC50: 88 nM
[2]; read-out: hNR2B IC50
  IC50: 88 nM

## CN1C(=O)CN=C(c2ccccc2)c2cc(Cl)ccc21 [diazepam]
[5]
  pro-/anticonvulsant activity (electroconvulsive threshold): expected pro- and anticonvulsant activities

## CN(C)CCCN1c2ccccc2CCc2ccccc21 [imipramine]
[6]
  antidepressant activity (immobility time): expected antidepressant activity

## Cn1c(=O)c2[nH]cnc2n(C)c1=O [theophylline]
[5]
  pro-/anticonvulsant activity (electroconvulsive threshold): expected pro- and anticonvulsant activities
